From patent US20070111258A1, “Compositions and methods for modulating the acute phase response” (priority 2005, published 2007)

Experiments:
[1] = test system: CREBH mRNA; experiment: CREBH mRNA induction in H2.35 cells (Northern blot, quantitative real-time RT-PCR); assay type: cell-based; settings: murine H2.35 hepatoma cells; IL6 40 ng/ml, TNFα 20 ng/ml, IL1β 40 ng/ml, DTT 5 mM, Tg 0.5 μM, Tm 5 μg/ml, BFA 0.5 μg/ml; 4, 8, 12 hours
Protocol: FIG. 1 depicts the induction of expression of CREBH during fetal liver development and by proinflammatory cytokines. (A) Structural comparison of CREBH and ATF6. The domains are indicated by residue numbers of amino acids. (B) Northern blot analysis of CREBH mRNA levels in various tissues from mice. Tissue samples were collected from 3-month-old wild-type C57BL/6J mice. Levels of β-actin mRNA were determined for control of sample loading. (C) Expression profile of CREBH mRNA in fetal livers during embryogenesis. (D) Induction of CREBH mRNA in murine hepatoma cell line H2.35 under IL6 (40 ng/ml) stimulation for various time points. For panels A-D, experiments were performed at least 3 times and representative data are shown.
FIG. 2 depicts the analysis of gene expression in H2.35 cells. H2.35 cells were treated with 20 ng/ml TNFα, 40 ng/ml IL1β, 20 μg.ml LPS, 5 mM DTT, 0.5 μM Tg, 5 μg/ml Tm or 0.5 μg/ml BFA for 4, 8 and 12 hours, respectively. Levels of CREBH mRNA (A) and spliced XBP1 mRNA (B) in H2.35 were determined by quantitative real-time RT-PCR. Fold changes of mRNA induction were determined after normalization of the mRNA levels to internal control 18S ribosomal RNA levels. […] However, expression from the SAP or CRP promoter-reporter plasmids is sufficiently measurable in H2.35 cells so that it is possible to investigate transcriptional activation effects of CREBH on the CRP and SAP promoters by reporter assays in H2.35 cells. These reporter experiments are not possible in non-hepatocyte cell lines. However, for non-hepatocyte cell lines, such as wild-type and mutant CHO cells, CREBH cleavage and activation could be measured using the UPRE reporter assay. (C) Summary of stimuli that induce CREBH mRNA, NF-κB activation and the UPR in H2.35 and HepG2 cells. (D) Expression of BiP and GRP94 in H2.35 cells over-expressing CREBH or ATF6. H2.35 cells in a 35 mm collagen-coated plate were transfected with 1.5 μg empty DNA vector, vector expressing the nuclear form of CREBH (CREBH-N) or vector expressing nuclear form of ATF6 (ATF6 p50), respectively. Expression levels of BiP and GRP 94 were determined by Western blot analysis by using a murine and —BiP monoclonal antibody and a murine anti-GRP94 monoclonal antibody, respectively. The membranes were re-blotted with an anti-α-actin antibody for control of sample loading.
Northern blot analysis was performed according to standard procedures (Sambrook et al., 1989). ^32P-labeled probes were prepared using a random prime labeling system (Amersham Pharmacia, Piscataway, N.J., USA). A 210 bp mouse CREBH cDNA fragment, a 250 bp mouse CRP cDNA fragment and a 260 bp mouse SAP cDNA fragment were amplified from murine total RNA by reverse transcription-PCR system (Roche Applied Science), respectively, and were used as probes for Northern blot analyses. Total RNA (15 μg) per sample purified from cultured cells or murine tissues was used for Northern blot analysis. Quantitative real-time RT-PCR was performed as previously described (Back et al., 2005). Briefly, total cellular RNA prepared was reverse-transcribed to cDNA using a random primer (Applied Biosystems). The reaction mixture, containing SYBR Green PCR Master Mix (Applied Biosystems), was run in a 7900HT Fast Real-Time PCR System (Applied Biosystems). Real-time PCR primer sequences for quantification of murine XBP1 mRNA splicing are: the forward primer 5′-[…]-3′, and the reverse primer 5′-[…]-3′. Other primer sequences were designed by Primer Express (Applied Biosystems).

[2] = test system: BiP, CHOP, EDEM, spliced XBP1, SAP and CRP mRNAs; experiment: UPR and APR mRNA induction in mouse liver after injection (quantitative real-time RT-PCR); assay type: in vivo; settings: intraperitoneal injection of Tm 2 mg/kg; 24 hours
Protocol: Levels of spliced XBP1 mRNA were determined by quantitative real-time RT-PCR (lower panel). […] (B) Induction of CRP, SAP, BiP and spliced XBP1 mRNAs in mice injected with Tm. C57BU6J mice at 3-months of age were injected intraperitoneally with Tm (2 mg/kg body weight) in 150 mM dextrose solution. Mice were injected with the same volume of dextrose solution as a control. Liver tissues were collected from mice at 24 hours after injection for RNA isolation. (C-E) Induction of the BiP, CHOP, EDEM, spliced XBP1, SAP and CRP mRNAs in mice challenged with IL6, IL1β, LPS or Tm. Wild-type C57B1/6J mice at 3-months of age were intraperitoneally injected with recombinant murine IL6 (25 ng/gram body weight), recombinant murine IL1β (25 ng/gram body weight), LPS (3 μg/gram body weight) or Tm (2 μg/gram body weight). Mice were injected with the same volume of NaCL (for panels C and D) or dextrose (for panels E) solution as controls. At 24 hours after injection, liver samples were collected for isolating total RNA. Quantitative real-time RT-PCR was used to determine the mRNA levels. Fold changes of mRNA induction were determined after normalization of the mRNA levels to internal control 18S ribosomal RNA levels. Each bar denotes the mean±S.D., n=5 mice per injection.
Quantitative real-time RT-PCR was performed as previously described (Back et al., 2005). Briefly, total cellular RNA prepared was reverse-transcribed to cDNA using a random primer (Applied Biosystems). The reaction mixture, containing SYBR Green PCR Master Mix (Applied Biosystems), was run in a 7900HT Fast Real-Time PCR System (Applied Biosystems). Real-time PCR primer sequences for quantification of murine XBP1 mRNA splicing are: the forward primer 5′-[sequence]-3′, and the reverse primer 5′-[sequence]-3′. Other primer sequences were designed by Primer Express (Applied Biosystems).

[3] = test system: CRP and SAP mRNA; experiment: CRP and SAP mRNA in mouse primary hepatocytes (Northern blot); assay type: cell-based; settings: Tm 5 μg/ml 2, 4, 6, 8 hours
Protocol: Primary hepatocytes were isolated from fetal livers of C57BL/6J mice at embryonic stage E18, and were then treated with Tm (5 μg/ml) for 2, 4, 6, and 8 hours. Total RNA was isolated and subjected to Northern blot analysis to determine levels of CRP, SAP and BiP mRNAs (upper panel). Levels of spliced XBP1 mRNA were determined by quantitative real-time RT-PCR (lower panel). For panels A-B, experiments were performed at least 3 times and representative data are shown. […] Quantitative real-time RT-PCR was used to determine the mRNA levels.
Primary hepatocytes were isolated from fetal livers of C57BL/6J mice at embryonic stage E18 as previously described (Mackey and Darlington, 2004).

[4] = test system: CREBH; experiment: Endogenous CREBH cleavage in mouse liver (Western blot); assay type: in vivo; settings: wild-type mice; 24 hours after i.p. injection
Protocol: (F-G) Expression of endogenous CREBH protein in the livers of wild-type (F) and CREBH knockdown (G) mice challenged with IL6 plus IL1β, LPS or Tm. Wild-type or CREBH knockdown mice of 3-month old were intraperitoneally injected with IL6 (25 ng/gram body weight) plus IL1β (25 ng/gram body weight), LPS (3 μg/gram body weight) or Tm (2 μg/gram body weight). Mice were injected with the same volume of NaCL solution as controls. Liver protein extracts were prepared at 24 hours after injection. Western blot analysis was performed by using a polyclonal anti-mouse CREBH antibody. The blots were reprobed with anti-α-actin antibody for loading controls.

Question: Which “induction of CREBH mRNA” value [1] does the source give for tunicamycin [Tm] here?
Answer: minor effect

Question: What about the “expression of APR genes and UPR genes in the livers of mice” value [2] of the same substance?
Answer: induced expression of both the APR genes and the UPR genes

Question: And the “expression of the CRP and SAP mRNA” value [3]?
Answer: increased expression of the CRP and SAP mRNA in a time-dependent manner

Question: What about the “cleaved form of CREBH in the livers” value [4] of the same substance?
Answer: cleaved form of CREBH was increased
